Source: publication PMC11620503 (Antimicrobial Agents and Chemotherapy, 2024)
In brackets after ≈: the same amount, converted by molar mass. Like-named read-outs stand apart in the source and are kept apart here. Marks after values point to notes of the source that are not given here.

How the values were obtained:
Assay in all cases: MIC, broth microdilution
[1] = test system: 207 Enterobacterales including carbapenem-resistant isolates; format: cell-based; conditions: for CLSI MIC interpretation I (intermediate) / CLSI MIC interpretation R (resistant) / CLSI MIC interpretation S (susceptible): CLSI breakpoints, marked c: breakpoints for β-lactam alone, tigecycline: FDA breakpoints; for MIC50: read-out: MIC50; for MIC90: read-out: MIC90
[2] = test system: MEM-nonsusceptible Enterobacterales; format: cell-based; conditions: MEM-nonsusceptible Enterobacterales (127), cefiderocol 126 isolates; for CLSI MIC interpretation I (intermediate) / CLSI MIC interpretation R (resistant) / CLSI MIC interpretation S (susceptible): CLSI breakpoints, marked c: breakpoints for β-lactam alone, tigecycline: FDA breakpoints; for MIC50: read-out: MIC50; for MIC90: read-out: MIC90
[3] = test system: serine-carbapenemase-producing isolates (Enterobacterales); format: cell-based; conditions: Enterobacterales with serine-carbapenemases (80); for CLSI MIC interpretation I (intermediate) / CLSI MIC interpretation R (resistant) / CLSI MIC interpretation S (susceptible): CLSI breakpoints, marked c: breakpoints for β-lactam alone, tigecycline: FDA breakpoints; for MIC50: read-out: MIC50; for MIC90: read-out: MIC90
[4] = test system: MBL-producing isolates (Enterobacterales); format: cell-based; conditions: for CLSI MIC interpretation I (intermediate) / CLSI MIC interpretation R (resistant) / CLSI MIC interpretation S (susceptible): CLSI breakpoints, marked c: breakpoints for β-lactam alone, tigecycline: FDA breakpoints; for MIC50: read-out: MIC50; for MIC90: read-out: MIC90
[5] = test system: 55 isolates of A. baumannii; format: cell-based, Acinetobacter baumannii; conditions: Acinetobacter baumannii (55); for MIC50: read-out: MIC50; for MIC90: read-out: MIC90
96 P. aeruginosa = format: cell-based, Pseudomonas aeruginosa; conditions: Pseudomonas aeruginosa (96); for MIC50: read-out: MIC50; for MIC90: read-out: MIC90
[6] = test system: MEM-, imipenem/relebactam-, and ceftolozane/tazobactam-nonsusceptible P. aeruginosa; format: cell-based, Pseudomonas aeruginosa; conditions: for CLSI MIC interpretation I (intermediate) / CLSI MIC interpretation R (resistant) / CLSI MIC interpretation S (susceptible): marked c: breakpoints for β-lactam alone; for MIC50 / MIC90: Pseudomonas aeruginosa; for MIC50: read-out: MIC50; for MIC90: read-out: MIC90
[7] = test system: MEM-nonsusceptible Enterobacterales with serine-carbapenemases; format: cell-based; conditions: MEM-nonsusceptible Enterobacterales with serine-carbapenemases (58); for CLSI MIC interpretation I (intermediate) / CLSI MIC interpretation R (resistant) / CLSI MIC interpretation S (susceptible): CLSI breakpoints, marked c: breakpoints for β-lactam alone, tigecycline: FDA breakpoints; for MIC50: read-out: MIC50; for MIC90: read-out: MIC90
[8] = test system: MEM-nonsusceptible Enterobacterales with metallo-carbapenemases; format: cell-based; conditions: MEM-nonsusceptible Enterobacterales with metallo-carbapenemases (55), cefiderocol 54 isolates; for MIC50: read-out: MIC50; for MIC90: read-out: MIC90
[9] = All Enterobacterales (207), cefiderocol 205 isolates
[10] = fixed concentration (μg/mL) in label
[11] = Enterobacterales with metallo-carbapenemases (74), cefiderocol 73 isolates
[12] = Enterobacterales with metallo-carbapenemases (74), cefiderocol 73 isolates, fixed concentration (μg/mL) in label
[13] = CLSI breakpoints, marked c: breakpoints for β-lactam alone
[14] = Imipenem/relebactam-nonsusceptible Pseudomonas aeruginosa (43), CLSI breakpoints
[15] = MEM-nonsusceptible Pseudomonas aeruginosa (76), CLSI breakpoints
[16] = Imipenem/relebactam-nonsusceptible Pseudomonas aeruginosa (43), fixed concentration (μg/mL) in label
[17] = MEM-nonsusceptible Pseudomonas aeruginosa (76), fixed concentration (μg/mL) in label
[18] = CLSI breakpoints, marked c: breakpoints for β-lactam alone, tigecycline: FDA breakpoints

With C[C@H]1COc2c(N3CCN(C)CC3)c(F)cc3c(=O)c(C(=O)O)cn1c23 [Levofloxacin] the “CLSI MIC interpretation I (intermediate)” value [1, 9] was 3.9%, the “CLSI MIC interpretation R (resistant)” value [1, 9] was 72% and the “CLSI MIC interpretation S (susceptible)” value [1, 9] was 24.2%. For the same compound, the MIC50 [1] was 16 µg/mL (≈ 44.3 µM), the MIC90 [1] was 64 µg/mL (≈ 177 µM) and the “CLSI MIC interpretation I (intermediate)” value [2] was 2.4%. For the same compound, the “CLSI MIC interpretation R (resistant)” value [2] was 79.5%, the “CLSI MIC interpretation S (susceptible)” value [2] was 18.1% and the MIC50 [2, 10] was 32 µg/mL (≈ 88.6 µM). The MIC90 [2, 10] was 64 µg/mL (≈ 177 µM), the “CLSI MIC interpretation I (intermediate)” value [3] was 1.3% and the “CLSI MIC interpretation R (resistant)” value [3] was 71.3%. For the same compound, the “CLSI MIC interpretation S (susceptible)” value [3] was 27.5%, the MIC50 [3, 10] was 16 µg/mL (≈ 44.3 µM) and the MIC90 [3, 10] was greater than 64 µg/mL. For the same compound, the “CLSI MIC interpretation I (intermediate)” value [4, 11] was 6.8%, the “CLSI MIC interpretation R (resistant)” value [4, 11] was 81.1% and the “CLSI MIC interpretation S (susceptible)” value [4, 11] was 12.2%. For the same compound, the MIC50 [4, 12] was 32 µg/mL (≈ 88.6 µM), the MIC90 [4, 12] was greater than 64 µg/mL and the “CLSI MIC interpretation I (intermediate)” value [5, 13] was 10.9%. The “CLSI MIC interpretation R (resistant)” value [5, 13] was 89.1%, the “CLSI MIC interpretation S (susceptible)” value [5, 13] was 0% and the MIC50 [5, 10] was 16 µg/mL (≈ 44.3 µM). For the same compound, the MIC90 [5, 10] was 64 µg/mL (≈ 177 µM), the “CLSI MIC interpretation I (intermediate)” value (96 P. aeruginosa; [13]) was 4.2% and the “CLSI MIC interpretation R (resistant)” value (96 P. aeruginosa; [13]) was 81.3%. The “CLSI MIC interpretation S (susceptible)” value (96 P. aeruginosa; [13]) was 14.6%, the MIC50 (96 P. aeruginosa; [10]) was 32 µg/mL (≈ 88.6 µM) and the MIC90 (96 P. aeruginosa; [10]) was 64 µg/mL (≈ 177 µM). The “CLSI MIC interpretation (%) I” value ([6]; I, intermediate (including susceptible dose-dependent), CLSI breakpoints, last subgroup of Table 2) was 2.2%, the “CLSI MIC interpretation I (intermediate)” value [6, 14] was 0% and the “CLSI MIC interpretation R (resistant)” value [6, 14] was 100%. The “CLSI MIC interpretation S (susceptible)” value [6, 14] was 0%, the “CLSI MIC interpretation I (intermediate)” value [6, 15] was 1.3% and the “CLSI MIC interpretation R (resistant)” value [6, 15] was 89.5%. For the same compound, the “CLSI MIC interpretation S (susceptible)” value [6, 15] was 9.2%, the MIC50 [6, 16] was 32 µg/mL and the MIC90 [6, 16] was greater than 64 µg/mL. It also gave an MIC50 [6, 17] of 32 µg/mL (≈ 88.6 µM), an MIC90 [6, 17] greater than 64 µg/mL and an MIC50 ([6]; Table 2, broth microdilution) of 32 µg/mL (≈ 88.6 µM). The MIC90 ([6]; Table 2, broth microdilution) was 64 µg/mL (≈ 177 µM), the “CLSI MIC interpretation (%) R” value ([6]; R, resistant, CLSI breakpoints, last subgroup of Table 2) was 91.1% and the “CLSI MIC interpretation (%) S” value ([6]; S, susceptible, CLSI breakpoints, last subgroup of Table 2) was 6.7%. The “CLSI MIC interpretation I (intermediate)” value [7] was 0%, the “CLSI MIC interpretation R (resistant)” value [7] was 75.9% and the “CLSI MIC interpretation S (susceptible)” value [7] was 24.1%. For the same compound, the MIC50 [7, 10] was 32 µg/mL (≈ 88.6 µM), the MIC90 [7, 10] was 64 µg/mL (≈ 177 µM) and the “CLSI MIC interpretation I (intermediate)” value [8, 18] was 5.5%. The “CLSI MIC interpretation S (susceptible)” value [8, 18] was 5.5%, the MIC50 [8, 10] was 32 µg/mL (≈ 88.6 µM) and the MIC90 [8, 10] was greater than 64 µg/mL.
In the case of CN(C)c1cc(NC(=O)CNC(C)(C)C)c(O)c2c1C[C@H]1C[C@H]3[C@H](N(C)C)C(O)=C(C(N)=O)C(=O)[C@@]3(O)C(O)=C1C2=O [tigecycline], the “CLSI MIC interpretation I (intermediate)” value [1, 9] is reported as 4.3^d %, the “CLSI MIC interpretation R (resistant)” value [1, 9] is reported as 0.5^d % and the “CLSI MIC interpretation S (susceptible)” value [1, 9] is reported as 95.2^d %. The “MIC Range” value ([1]; All Enterobacterales (207), cefiderocol 205 isolates, fixed concentration (μg/mL) in label) was 0.12 to 16 µg/mL, the MIC50 [1] was 0.5 µg/mL (≈ 0.854 µM) and the MIC90 [1] was 2 µg/mL (≈ 3.41 µM). The “CLSI MIC interpretation I (intermediate)” value [2] was 5.5^d %, the “CLSI MIC interpretation R (resistant)” value [2] was 0.8^d % and the “CLSI MIC interpretation S (susceptible)” value [2] was 93.7^d %. For the same compound, the “MIC Range” value [2, 10] was 0.12 to 16 µg/mL, the MIC50 [2, 10] was 1 µg/mL (≈ 1.71 µM) and the MIC90 [2, 10] was 2 µg/mL (≈ 3.41 µM). The “CLSI MIC interpretation I (intermediate)” value [3] was 3.8^d %, the “CLSI MIC interpretation R (resistant)” value [3] was 0.0^d % and the “CLSI MIC interpretation S (susceptible)” value [3] was 96.3^d %. For the same compound, the “MIC Range” value [3, 10] was 0.12 to 4 µg/mL, the MIC50 [3, 10] was 1 µg/mL (≈ 1.71 µM) and the MIC90 [3, 10] was 2 µg/mL (≈ 3.41 µM). The “CLSI MIC interpretation I (intermediate)” value [4, 11] was 8.1^d %, the “CLSI MIC interpretation R (resistant)” value [4, 11] was 0.0^d % and the “CLSI MIC interpretation S (susceptible)” value [4, 11] was 91.9^d %. For the same compound, the “MIC Range” value [4, 12] was 0.12 to 4 µg/mL, the MIC50 [4, 12] was 0.5 µg/mL (≈ 0.854 µM) and the MIC90 [4, 12] was 2 µg/mL (≈ 3.41 µM). The MIC90 ([4]; MBL-producing isolates, comparators) was no more than 4 µg/mL, the “MIC Range” value [5, 10] was 0.25 to 2 µg/mL and the MIC50 [5, 10] was 1 µg/mL (≈ 1.71 µM). The MIC90 [5, 10] was 1 µg/mL (≈ 1.71 µM), the “MIC Range” value (96 P. aeruginosa; [10]) was 0.5 to 16 µg/mL and the MIC50 (96 P. aeruginosa; [10]) was 4 µg/mL (≈ 6.83 µM). The MIC90 (96 P. aeruginosa; [10]) was 16 µg/mL (≈ 27.3 µM), the “MIC Range” value [6, 16] was 1 to 16 µg/mL and the “MIC Range” value [6, 17] was 1 to 16 µg/mL. It also gave an MIC50 [6, 16] of 4 µg/mL, an MIC90 [6, 16] of 16 µg/mL and an MIC50 [6, 17] of 4 µg/mL (≈ 6.83 µM). It also gave an MIC90 [6, 17] of 16 µg/mL (≈ 27.3 µM), an MIC50 ([6]; Table 2, broth microdilution) of 4 µg/mL (≈ 6.83 µM) and an MIC90 ([6]; Table 2, broth microdilution) of 16 µg/mL (≈ 27.3 µM). The “MIC Range” value ([6]; last subgroup of Table 2 (heading not shown; 45 isolates by the percentages, ceftolozane/tazobactam 0% S), broth microdilution) was 1 to 16 µg/mL, the “CLSI MIC interpretation I (intermediate)” value [7] was 1.7^d % and the “CLSI MIC interpretation R (resistant)” value [7] was 0.0^d %. For the same compound, the “CLSI MIC interpretation S (susceptible)” value [7] was 98.3^d %, the “MIC Range” value [7, 10] was 0.12 to 4 µg/mL and the MIC50 [7, 10] was 1 µg/mL (≈ 1.71 µM). The MIC90 [7, 10] was 2 µg/mL (≈ 3.41 µM), the “CLSI MIC interpretation I (intermediate)” value [8, 18] was 10.9^d % and the “CLSI MIC interpretation R (resistant)” value [8, 18] was 0.0^d %. The “CLSI MIC interpretation S (susceptible)” value [8, 18] was 89.1^d %, the “MIC Range” value [8, 10] was 0.12 to 4 µg/mL and the MIC50 [8, 10] was 1 µg/mL (≈ 1.71 µM). It also gave an MIC90 [8, 10] of 4 µg/mL (≈ 6.83 µM).
